The source of these data is patent US8318815B2, “Method for treatment of tumors using nordihydroguaiaretic acid derivatives” (priority 1999, dated 2012).

The term IC50 denotes the midpoint of a concentration-inhibition curve.

Where two headings read alike, the source gives them in different places. Where only a bound is given, the exact number is not on record here.

One data set relates to mammalian cells. As to conditions: low concentrations (10 μM); cited from earlier work.
For data set [1], the system named is HSV-1. In words: HSV-1 skin infection in guinea pig, topical treatment. The data set is classed as in vivo. As to conditions: 30 μl of 60 mg/ml in DMSO, five times per day for six days. The procedure: The drug M4N was also tested in inhibition of HSV-1 replication in skin infections in guinea pigs. Guinea pig skin was pinched with needles and HSV-1 […] was applied topically to infect each pricked area. M4N was then applied to the pricked infected area following infection daily for 6 days.
Six areas of bared back skin of a guinea pig were punched sterilely with a 5=DIN needle. Two areas were infected with HSV-1 (HSV-C, culture supernatant, or isolated HSV in saline, HSV-SC). The other four areas were infected with HSV-SC.

The test system of data set [2] is HSV-1. Conditions: cited from earlier work; for IC50: infected Vero cells.
The test system of the next data set is HSV-2. As to conditions: infected Vero cells; fourth passage of HSV-2; cited from earlier work.
Data set [3] relates to HIV LTR promoter (Tat-transactivation). In words: Tat-transactivation of HIV promoter activity in Cos cells, SEAP assay. The data set is classed as cell-based. As to conditions: read-out: IC50 for inhibition of HIV Tat-regulated transactivation. The source says:
As reported previously, methylated NDGA derivatives can block Sp1 binding to the enhancer sites of a variety of viral promoters including HIV, ICP4 of HSV, E6/E7 gene of HPV (8, 9, 10). We further tested the G4N effect on the Tat-transactivation of HIV promoter activity in Cos cells by the SEAP assay as previously described. […] There were 60-fold or more increase in SEAP expression when Cos cells were cotransfected with the CMV promoter driven Tat gene (8). Such Tat-driven ransactivation of the HIV LTR promoter activity was previously shown to be Sp1 regulated (7, 8). In the presence of G4N, we observed inhibition of HIV transactivation in a dose-dependent fashion (FIG. 14). […]. The differences perhaps are due to the chemical nature of the test compounds affecting the drug uptake to the cells.

The target in data set [4] is Sp1-167D / HIV Sp1-binding sites (Homo sapiens, UniProt P08047). Kind of data set: Gel mobility-shift analysis (EMSA) of Sp1-167D binding to HIV Sp1 DNA template. Conditions: 0.25 to 1.75 mM. The procedure:
FIG. 13. Electrophoretic mobility shift assay (EMSA) of G4N interaction with the HIV Sp1-binding sites (−87 to −49). (A) G4N inhibition of Sp1-167D binding to ^32P labeled HIV Sp1 DNA template. […] Lane 1, template alone; lanes 2-4, template plus increasing amounts of Sp1-167D (0.075, 0.150, 0.300 μg); lanes 5-8, template incubated in reaction buffer containing 1.2 mM G4N followed by challenge with increasing amounts of Sp1-167D (0.075, 0.150, 0.300 μg), lane 8 received no Sp1-167D. (D) Plot of diminishing Sp1-167D/DNA complex band intensities in response to increasing concentrations of G4N used in (A) ---•--- and (B) —•—. The gels used were 5% non-denaturing polyacrylamide with each lane receiving 5 μl of each reaction volume as described in experimental section and Ref. [1].
Sp1 family proteins induce bends toward the major groove of DNA upon binding (33). The zinc finger domain of the Sp1 protein is responsible for the binding of the GC Box sequence 5′-GGGGCGGGG-3′. From computational analysis, it was determined that G4N, the aminoester derivative of NDGA, could form a stable complex with such a sequence in the major groove. To determine whether G4N can serve as an Sp1 blocker as well as an Sp1 displacer, we performed Sp1/enhancer interaction studies in the presence or absence of G4N by the gel mobility-shift analysis using only the […] binding domain of Sp1 for testing. […]

The test system of a further data set is SIVmac 239. Kind of data set: SIV production in 174×CEM cells, p27 antigen capture ELISA. The data set is classed as cell-based. The procedure: FIG. 15. SIV production with presence of G4N. 10^7 […], a human T-cell lymphoma cell line, were mixed with a 24 hrs. harvest stock of SIV mac 239 (4 ng of p27) for two hours at 37. Cells were resuspended and 1×10^5 cells in 100 μl medium were added to each well of three 96-well plates. Various concentrations of G4N from a freshly made stock were prepared and added to each of the six designed well. Culture supernatants were collected after four and eight days for viral production analysis. Viral production was assayed by a modified p27 capsid protein antigen capture ELISA as described in experimental section.
Both HIV-1 and SIV are retroviruses that require integration into the host genome to complete their replication. Both rely on host transcription factors for their proviral transcriptions. Sp1 plays a central role for such expression in these two viruses sharing an almost identical mode of transcription regulation. […] There was no SIV production detected using G4N in concentrations above […]. At G4N concentrations below 2.5 CIM, SIV production was detected (FIG. 15) in culture supernatants from 4th and 8th days post infected cultures as compared to viral production in the absence of the drug.
In general terms: ELISA stands for enzyme-linked immunosorbent assay.

A further data set deals with 174×CEM cells. The data set is classed as cell-based, human. An excerpt:
Both HIV-1 and SIV are retroviruses that require integration into the host genome to complete their replication. Both rely on host transcription factors for their proviral transcriptions. Sp1 plays a central role for such expression in these two viruses sharing an almost identical mode of transcription regulation. In anticipation of using SIV infected rhesus monkeys as animal model for testing the antiviral effect of G4N, we have studied and compared the G4N effect in inhibition of SIV in 174×CEM cells with that of HIV in H9 cells. Cellular toxicities of G4N in these two cell lines were also examined. For SIV inhibition study, 10^7 174×CEM cells were mixed with high titer stock of SIVmac 239 at 37° C. for two hours and then washed twice with cold PBS buffer to remove the unabsorbed virus. Cell suspension was aliquoted into each well of three 96 well plates. Various concentrations of the G4N solutions were made from freshly prepared stock and aliquoted separately and each to six wells in a column of one 96 well plate. Culture supernatants were collected every four days post infection. […] There was no SIV production detected using G4N in concentrations above […]. At G4N concentrations below 2.5 CIM, SIV production was detected (FIG. 15) in culture supernatants from 4th and 8th days post infected cultures as compared to viral production in the absence of the drug.

For the next data set, the system named is HIV-1RTMF. In words: HIV-1 production in H9 cells, p24 antigen capture ELISA. It is filed as cell-based. As to conditions: p24, AZT resistant strain, read-out: IC50 for the inhibition of HIV-1 RTMF. The protocol: FIG. 16. Inhibition of HIV p24 antigen production in H9 cells by G4N. Inhibition in percentage was calculated by comparing p24 level from an average of two duplicate cultures of G4N treated and not treated H9 cells 9 days following viral infection with a AZT resistant HIV strain, HIV-1RTMF.
(§1) A similar experiment was also carried out for the study of inhibition of HIV-1 by G4N in H9 cells. The H9 cells were subcultured at 1×10^5/ml and were infected with an AZT resistant strain of HIV-1(HIV-1RTMF). G4N in different concentrations was added two hours after infection. Fresh medium change was made every four days. Cell growth in the presence of G4N was monitored carefully during the nine-day experimental period. Viral production was assayed by a p24 core antigen capture ELISA. […] Again, there was no detectable toxicity to uninfected H9 cells within the range of the assay (and below 250 μM).

The next data set relates to H9 cells. It is filed as cell-based. The procedure: as §1
Data set [5] in a line: Toxicity studies of G4N in mice. As to conditions: for Mortality: 6 days.
Protocol: C57BL-16NCR female mice from NCI were used in this experiment.
Injections of 0.05 ml for group 1, 0.1 ml for groups 2 and 4, and 0.2 ml for group 3 per treatment were made for a period of 6 days. Experiments lasted seven days. Body weights were determined before and after six days of injection.

Chain of Sp1-167D / HIV Sp1-binding sites (P08047 619-785 limits assumed): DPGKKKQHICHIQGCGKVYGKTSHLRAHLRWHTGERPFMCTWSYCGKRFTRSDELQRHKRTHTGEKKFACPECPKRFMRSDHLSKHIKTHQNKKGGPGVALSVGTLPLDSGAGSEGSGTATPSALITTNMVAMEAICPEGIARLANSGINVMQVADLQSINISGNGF

Take `CC(Cc1ccc(O)c(O)c1)C(C)Cc1ccc(O)c(O)c1` (stereo not shown) [NDGA, nordihydroguaiaretic acid]: the “apoptosis in mammalian cells” value with mammalian cells is “induce apoptosis”.
On to `Nc1nc2c(ncn2COCCO)c(=O)[nH]1` [ACV, acycloguanosine], for which the “blisters in HSV-1 infected skin areas at day 6” value in the data set with HSV-1 [1] is recorded as “no blisters”. Moreover, the “drop of selective index, S.I. (TC50/IC50)” value in the data set with HSV-1 [2] (following the viral passages in Vero cells) is reported as 60 fold. The IC50 in the data set with HSV-1 [2] (first viral passage) is 7 µM; with HSV-1 [2] (tenth passage of HSV-1), 444 µM; in the data set on HSV-2, greater than 88 µM.
In the case of `COc1cc(C[C@H](C)[C@H](C)Cc2ccc(O)c(O)c2)ccc1O` [Ma1.4, 3-O-methyl NDGA, reference compound], in data set [3], the IC50 was found to be 25 µM.
Take `C[C@H](Cc1ccc(OC(=O)CN(C)C)c(OC(=O)CN(C)C)c1)[C@@H](C)Cc1ccc(OC(=O)CN(C)C)c(OC(=O)CN(C)C)c1.Cl.Cl.Cl.Cl` [G4N, meso-1,4-Bis [3,4-(dimethylaminoacetoxy)phenyl]-(2R,3S)-dimethylbutane Chloride Salt]: the “blocking and displacement of Sp1-167D binding to DNA” value in data set [4] is on record as “able keep DNA from interacting with Sp1-167D protein”. Further, the results for the IC50 (in data set [3]; in the data set with HIV-1RTMF) were 36 µM and 12 µM, respectively. In the data set with SIVmac 239, the “concentrations at which no SIV production was detected” value was “above 5 CIM”. In the data set with SIVmac 239 (4th and 8th days post infection), the “concentrations at which SIV production was detected” value is “below 2.5 CIM”. The “concentration with no toxic effect on uninfected cells” value with 174×CEM cells was no more than 250 µM. Further, the “concentration with no detectable toxicity to uninfected cells” value in the data set with H9 cells was “below 250 μM”. For the same molecule, the Mortality in data set [5] (187.5 mg/kg, Subcutaneous, 2× per day) was 0/3; in data set [5] (375 mg/kg, IV, 2× per day), 0/2; in data set [5] (375 mg/kg, Subcutaneous, 1× per day), 0/3; in [5] (750 mg/kg, Subcutaneous, 1× per day) it was 1/4. In addition, the “body weight changes during the experimental period” value in data set [5] (before and after six days of injection) was “No significant weight changes”.
